Experimental data: PMC3039983, “Cloning, Expression, and Characterization of Thermotolerant Manganese Superoxide Dismutase from Bacillus sp. MHS47” (International Journal of Molecular Sciences, 2011)

Target: T1, MnSOD47 (Bacillus sp. MHS47, UniProt E9LK91)
T1 construct: gene sodA
Assay: xanthine oxidase/hypoxanthine-tetrazolium SOD assay, […] nm
Assay type: biochemical
Details: superoxide generated in situ by xanthine oxidase/hypoxanthine; indirect read-out

T1 sequence (E9LK91 1-203 limits assumed): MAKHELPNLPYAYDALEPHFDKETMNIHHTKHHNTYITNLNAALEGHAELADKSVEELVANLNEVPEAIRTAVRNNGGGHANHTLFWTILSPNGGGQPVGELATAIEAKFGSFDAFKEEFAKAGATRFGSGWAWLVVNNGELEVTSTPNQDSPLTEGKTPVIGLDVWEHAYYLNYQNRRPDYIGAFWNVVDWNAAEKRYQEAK

[O]O [superoxide radical]
xanthine oxidase/hypoxanthine-tetrazolium SOD assay, 450 nm: coupled to a tetrazolium salt to detect the reduction in superoxide radicals
